# Earlier results in patent publication US20220125854A1, “PREPARATION AND EXTENDED CULTURE OF VASCULAR ENDOTHELIAL PROGENITOR CELL” (PUBLIC UNIVERSITY CORPORATION NAGOYA CITY UNIVERSITY, priority 2019, published 2022).
# Experiments:
# Conditions in all cases: report
# HUVECs = test system: HUVECs
# [1] = test system: ECs derived from ES cells
# [2] = test system: ECs derived from iPS cells
compound,measurement,setting,value
Cc1c[nH]c(-c2cnc(NCCNc3ccc(C#N)cn3)nc2-c2ccc(Cl)cc2Cl)n1 [CHIR 99021],proliferation potency of HUVECs,HUVECs,enhances the proliferation potency
NC(=O)c1ccc(-c2nc(-c3ccccn3)c(-c3ccc4c(c3)OCO4)[nH]2)cc1 [SB 43152],proliferation potency of ECs derived from ES cells,[1],enhances the proliferation potency
C[C@@H](N)[C@H]1CC[C@H](C(=O)Nc2ccncc2)CC1 [Y-27632],proliferation potency of ECs derived from iPS cells,[2],enhancing the proliferation potency
